In data set [1] the test system is HIV-1Bal.01.
For data set [2], the target named is T1, wild type gp120 YU-2 (Human immunodeficiency virus type 1 group M subtype B, UniProt P35961).
T1 construct: into 30 μM of YU2 full-length gp120 at 25° C; made in house; host or cells: HEK 293F
Put plainly: Isothermal titration calorimetry binding to gp120. On the set-up: species or system HIV-1. Here is the method:
FIGS. 9A-9C illustrate cPT binding and thermodynamic profile of monomeric wild type gp120 YU-2 for cPTs 3 (FIGS. 9A and 9C) and 36 (FIGS. 9B and 9C). Compound solution, 390 μM (for 3) or 200 μM (for 36), was titrated in 8 μL steps into 30 μM of YU2 full-length gp120 at 25° C. in the reaction chamber of a VP-ITC instrument using 1×PBS buffer at pH 7.3. The resulting heat changes were integrated, and the values obtained were fitted to a quadratic binding equation (one site binding model).
cPT dissociation constants were determined at 25° C. on a VP-Isothermal Titration calorimeter (VP-ITC) system (MicroCal™, GE Healthcare, Freiburg). 200 μM (for 36) or 390 μM (for 3) compound solutions were in 8 μL steps titrated into 30 μM of wild type gp120 YU-2 at 25° C. using 1×PBS buffer at pH 7.3. The resulting heat change upon injection was integrated over a time range of 300 sec, and the obtained values were fitted to a standard single-site binding model using ORIGIN®.
Background: ITC needs no label: the signal is the heat of the interaction.

Data set [3] has as its system HOS.T4.R5 cells. The note with it: highest concentrations used 100 μM, 24 h post-exposure. Here is the method: cPTs 36 and 37 were tested for cytotoxicity in vitro with HOS.T4.R5 cells. The latter were seeded at […] per well and incubated with peptides as described elsewhere herein for the infection inhibition assays. Cell viability was determined using the tetrazolium salt premix reagent WST-1 from TaKaRa Bio, Inc., by following the manufacturer's protocol. The formazan product was measured 24 h post-exposure using a microplate reader (Molecular Devices) at an absorbance wavelength of 450 nm.

The mark [4] stands for this setting: read-out: HIV-1Bal.01 infection inhibition IC50, HIV-1Bal.01 pseudovirus, HOS.T4.R5 cells.
[5] abbreviates: read-out: HIV-1 IC50, HIV-1Bal.01 infection inhibition, Table 1.

Consider ten compounds from US12421279B2, “Cyclic peptide antiviral agents and methods using same” (priority 2016, dated 2025).

Like-named read-outs stand apart in the source and are kept apart here. *1 amine or outer side, *2 acyl side, *3 side chain or, on linkers, in order; H or OH if unused. Where a SMILES comes first, the peptide text is derived from it. Bridges are numbered along the chain shown (N, C = ends). [ ]: non-standard residue; d: D form. X17 = O=C([C@@H]1C[C@H](n2cc(C3=CC=C[CH]3[Fe][CH]3C=CC=C3)nn2)CN1[*:1])[*:2]; X15 = CC(C)(C)c1ccc(-c2cn([C@H]3C[C@@H](C(=O)[*:2])N([*:1])C3)nn2)cc1; X11 = Cc1ccc(Cc2cn([C@H]3C[C@@H](C(=O)[*:2])N([*:1])C3)nn2)c(C)c1; X4 = O=C([C@@H]1C[C@H](n2cc(C3C4CC5CC(C4)CC3C5)nn2)CN1[*:1])[*:2]; X6 = O=C([C@@H]1C[C@H](n2cc(-c3ccc(-c4cccs4)s3)nn2)CN1[*:1])[*:2]; X20 = Cc1ccc(Cc2cn([C@H]3C[C@@H](C(=O)[*:2])N([*:1])C3)nn2)cc1C; X10 = Cc1ccc(Cc2cn([C@H]3C[C@@H](C(=O)[*:2])N([*:1])C3)nn2)cc1; X9 = CCc1ccc(-c2cn([C@H]3C[C@@H](C(=O)[*:2])N([*:1])C3)nn2)cc1; X5 = O=C([C@@H]1C[C@H](n2cc(Cc3ccc(I)cc3)nn2)CN1[*:1])[*:2]; X14 = O=C([C@@H]1C[C@H](n2cc(Cc3ccccc3)nn2)CN1[*:1])[*:2]

Consider `CC[C@H](C)[C@@H]1NC(=O)[C@H](CC(N)=O)NC(=O)[C@@H](N)CC(=O)NCCCC[C@@H](C(N)=O)NC(=O)[C@H](Cc2c[nH]c3ccccc23)NC(=O)[C@@H]2C[C@H](n3cc(Cc4ccccc4)nn3)CN2C1=O` [compound 19] (H-DNI[X14]WK-NH2; lactam 1-6), for which the 50% inhibitory concentration (IC50) – broadly, the point on the concentration scale where inhibition reaches its midpoint – in data set [1] (setting [4]) was roughly 0.438 µM; in data set [1] (setting [5]), 0.438 ± 0.012 µM.
In the same order, the values of `CC[C@H](C)[C@@H]1NC(=O)[C@H](CC(N)=O)NC(=O)[C@@H](N)CC(=O)NCCCC[C@@H](C(N)=O)NC(=O)[C@H](Cc2c[nH]c3ccccc23)NC(=O)[C@@H]2C[C@H](n3cc(C4C5CC6CC(C5)CC4C6)nn3)CN2C1=O` (stereo partly drawn) [compound 18] (H-DNI[X4]WK-NH2; lactam 1-6) are roughly 1.3 µM and 1.4 ± 0.2 µM.
Turning to `CC[C@H](C)[C@@H]1NC(=O)[C@H](CC(N)=O)NC(=O)[C@@H](N)CC(=O)NCCCC[C@@H](C(N)=O)NC(=O)[C@H](Cc2c[nH]c3ccccc23)NC(=O)[C@@H]2C[C@H](n3cc(C4=CC=C[CH]4[Fe][CH]4C=CC=C4)nn3)CN2C1=O` (stereo partly drawn) [cPT 3] (H-DNI[X17]WK-NH2; lactam 1-6), binding in data set [2] was put at a Kd of 0.415 µM.
Take `CC[C@H](C)[C@@H]1NC(=O)[C@H](CC(N)=O)NC(=O)[C@@H](N)CC(=O)NCCCC[C@@H](C(N)=O)NC(=O)[C@H](Cc2c[nH]c3ccccc23)NC(=O)[C@@H]2C[C@H](n3cc(-c4ccc(-c5cccs5)s4)nn3)CN2C1=O` [compound 37] (H-DNI[X6]WK-NH2; lactam 1-6): in data set [3], the “cytotoxicity (cell viability)” value is on record as “no cytotoxicity was detected”. In data set [1] (setting [4]), the IC50 was 0.405 µM.
With `CC[C@H](C)[C@@H]1NC(=O)[C@H](CC(N)=O)NC(=O)[C@@H](N)CC(=O)NCCCC[C@@H](C(N)=O)NC(=O)[C@H](Cc2c[nH]c3ccccc23)NC(=O)[C@@H]2C[C@H](n3cc(Cc4ccc(C)cc4C)nn3)CN2C1=O` [cPT 27] (H-DNI[X11]WK-NH2; lactam 1-6 (inferred); N-terminus and C-terminus assumed), the concentration for half-maximal inhibition (IC50) in data set [1] (setting [4]) was roughly 0.302 µM; in data set [1] (setting [5]) it was 0.302 ± 0.05 µM.
In the same order, the values of `CC[C@H](C)[C@@H]1NC(=O)[C@H](CC(N)=O)NC(=O)[C@@H](N)CC(=O)NCCCC[C@@H](C(N)=O)NC(=O)[C@H](Cc2c[nH]c3ccccc23)NC(=O)[C@@H]2C[C@H](n3cc(-c4ccc(C(C)(C)C)cc4)nn3)CN2C1=O` [compound 22] (H-DNI[X15]WK-NH2; lactam 1-6) are roughly 0.35 µM and 0.35 ± 0.025 µM.
Regarding `CC[C@H](C)[C@@H]1NC(=O)[C@H](CC(N)=O)NC(=O)[C@@H](N)CC(=O)NCCCC[C@@H](C(N)=O)NC(=O)[C@H](Cc2c[nH]c3ccccc23)NC(=O)[C@@H]2C[C@H](n3cc(Cc4ccc(C)c(C)c4)nn3)CN2C1=O` [cPT 29] (H-DNI[X20]WK-NH2; lactam 1-6 (inferred); N-terminus and C-terminus assumed), the half-inhibitory concentration (IC50) in data set [1] (setting [4]) was 8 µM.
`CC[C@H](C)[C@@H]1NC(=O)[C@H](CC(N)=O)NC(=O)[C@@H](N)CC(=O)NCCCC[C@@H](C(N)=O)NC(=O)[C@H](Cc2c[nH]c3ccccc23)NC(=O)[C@@H]2C[C@H](n3cc(Cc4ccc(I)cc4)nn3)CN2C1=O` [cPT 33] (H-DNI[X5]WK-NH2; lactam 1-6): the values for the half-maximal inhibitory concentration (IC50) in data set [1] (setting [4]) and in data set [1] (setting [5]) were roughly 6 µM and 6 ± 0.45 µM, respectively.
In the same order, the values of `CCc1ccc(-c2cn([C@H]3C[C@H]4C(=O)N[C@@H](Cc5c[nH]c6ccccc56)C(=O)N[C@H](C(N)=O)CCCCNC(=O)C[C@H](N)C(=O)N[C@@H](CC(N)=O)C(=O)N[C@@H]([C@@H](C)CC)C(=O)N4C3)nn2)cc1` [compound 20] (H-DNI[X9]WK-NH2; lactam 1-6) are roughly 1.2 µM and 1.2 ± 0.5 µM.
The corresponding values for `CC[C@H](C)[C@@H]1NC(=O)[C@H](CC(N)=O)NC(=O)[C@@H](N)CC(=O)NCCCC[C@@H](C(N)=O)NC(=O)[C@H](Cc2c[nH]c3ccccc23)NC(=O)[C@@H]2C[C@H](n3cc(Cc4ccc(C)cc4)nn3)CN2C1=O` [cPT 24] (H-DNI[X10]WK-NH2; lactam 1-6 (inferred); N-terminus and C-terminus assumed) are roughly 0.18 µM and 0.18 ± 0.009 µM.
